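Compound exposure: 48 hours, 5 concentrations, 96-well plates. TGI is the concentration that stops growth completely.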
What follows are compounds tested on RXF 393 renal (assay: NCI anticancer screen, dose series, 48 h).
With `COc1cc2cc(C(=O)N3CC(CCl)c4ccc([N+](C)(C)Cc5ccccc5[N+](=O)[O-])cc43)[nH]c2c(OC)c1OC` (stereo not drawn) the TGI was 2.11 µM.
`CC(Cn1c2c(c3cc(O)ccc31)CCc1ccc(O)cc1-2)N(C)C` (stereo not drawn) was tested, and the TGI was 53.2 µM.
For `CC1=NN(c2nc(N)nc(/C(C#N)=C\c3ccc(-c4ccc([N+](=O)[O-])cc4)o3)n2)C(C)(C)C1`, the TGI was > 100 µM.
With `CCOC(=O)c1nc2ccc(C(F)(F)F)cc2nc1Nc1ccc(OC)cc1` the TGI was 70.1 µM.
With `COc1ccc2nc3ccc(OC)cc3c(SCCCl)c2c1` the TGI was > 48.1 µM.
`CC(=O)[C@H]1[C@H](O)C[C@@]2(C)[C@@H]3CCc4cc(O)c(OC5OC(CO)C(O)C(O)C5O)cc4C3(C)C(=O)C[C@]12C` (stereo partly drawn) was tested, and the TGI was > 100 µM.
`CC(C)(O)c1cc2c(cc1C(C)(C)O)-c1ccccc1-2` was tested, and the TGI was > 100 µM.
With `CC(C)[Si]1(C(C)C)OCC2OC(n3ccc(=O)[nH]c3=O)C([Se]c3ccccc3)C2O[Si](C(C)C)(C(C)C)O1` (stereo not drawn) the TGI was 9.65 µM.
In the case of `CN(N=O)c1nc2c(C(N)=O)ncn2s1`, the TGI is reported as > 100 µM.
For `CCOc1ccc(NC(=O)C(=O)Nn2c(N)nnc2N)cc1`, the TGI was > 100 µM.
In the case of `CC(C)(C)OC(=O)N1CCCC1C(=O)NC(c1ccccc1)c1ccccc1` (stereo not drawn), the TGI is reported as > 100 µM.
In the case of `O=C(NCCN1CCCCC1)c1cccc(I)c1`, the TGI is reported as > 100 µM.
With `COC(=O)[C@@](NC(=O)OCc1ccccc1)([C@H](C)O)C(F)(F)F` the TGI was > 100 µM.
With `Cc1[nH]c(-c2ccccc2)c2nc(N(C)C)oc(=O)c12` the TGI was > 100 µM.
`CC(C)(C)O/N=C/c1cc(NC(=S)c2ccsc2)ccc1Cl` was tested, and the TGI was 36.8 µM.
`O=C1Cc2cn[nH]c2-c2ccccc2N1` gave a TGI of 72.3 µM.
For `O=CNc1ccccc1OCCOc1ccccc1NC=O`, the TGI was > 100 µM.
With `C=CCN1CCC(c2cc(C(=O)OCC)[nH]c2-c2cc(C)no2)C1=O` (stereo not drawn) the TGI was > 100 µM.
`Cc1cc(NS(=O)(=O)c2ccc(N=[N+]([O-])c3ccc(S(=O)(=O)Nc4cc(C)on4)cc3)cc2)no1` was tested, and the TGI was > 100 µM.
`Cc1c(/C=N/NC(=S)N2CCCCC2)c(=O)n(-c2ccccc2)n1C` was tested, and the TGI was 97.3 µM.
Compound `COc1ccc(-c2nc(Nc3ccccc3)sc2Cc2sc(Nc3ccccc3)nc2-c2ccc(OC)cc2)cc1` has a TGI of 26.8 µM.
In the case of `Cc1ccc(S(=O)(=O)N2CCNCCN(S(=O)(=O)c3ccc(C)cc3)CCNCC2)cc1`, the TGI is reported as 14.7 µM.
In the case of `Cc1sc2nc3n(c(=O)c2c1C)N=CN(c1ccc(Cl)cc1)C3`, the TGI is reported as > 100 µM.

Each compound was assayed on SF-295 CNS (assay: NCI anticancer screen, dose series, 48 h).
`O=C(NCCNCCNC(=O)c1cc(-c2ccccc2)nc2ccccc12)c1cc(-c2ccccc2)nc2ccccc12` gave a TGI of 3.28 µM.
For `COc1cc2cc(C(=O)N3CC(CCl)c4ccc([N+](C)(C)Cc5ccccc5[N+](=O)[O-])cc43)[nH]c2c(OC)c1OC` (stereo not drawn), the TGI was 36.5 µM.
Work on `CC(Cn1c2c(c3cc(O)ccc31)CCc1ccc(O)cc1-2)N(C)C` (stereo not drawn) yielded a TGI of 45.4 µM.
With `CC1=NN(c2nc(N)nc(/C(C#N)=C\c3ccc(-c4ccc([N+](=O)[O-])cc4)o3)n2)C(C)(C)C1` the TGI was > 100 µM.
Work on `CCOC(=O)c1nc2ccc(C(F)(F)F)cc2nc1Nc1ccc(OC)cc1` yielded a TGI of 77.6 µM.
`COc1ccc2nc3ccc(OC)cc3c(SCCCl)c2c1` was tested, and the TGI was > 100 µM.
For `CC(=O)[C@H]1[C@H](O)C[C@@]2(C)[C@@H]3CCc4cc(O)c(OC5OC(CO)C(O)C(O)C5O)cc4C3(C)C(=O)C[C@]12C` (stereo partly drawn), the TGI was > 100 µM.
For `CC(C)(O)c1cc2c(cc1C(C)(C)O)-c1ccccc1-2`, the TGI was > 100 µM.
Compound `CC(C)[Si]1(C(C)C)OCC2OC(n3ccc(=O)[nH]c3=O)C([Se]c3ccccc3)C2O[Si](C(C)C)(C(C)C)O1` (stereo not drawn) has a TGI of 18 µM.
In the case of `CN(N=O)c1nc2c(C(N)=O)ncn2s1`, the TGI is reported as > 100 µM.
For `CCOc1ccc(NC(=O)C(=O)Nn2c(N)nnc2N)cc1`, the TGI was > 100 µM.
With `CC(C)(C)OC(=O)N1CCCC1C(=O)NC(c1ccccc1)c1ccccc1` (stereo not drawn) the TGI was > 100 µM.
For `COC(=O)[C@@](NC(=O)OCc1ccccc1)([C@H](C)O)C(F)(F)F`, the TGI was > 100 µM.
In the case of `Cc1[nH]c(-c2ccccc2)c2nc(N(C)C)oc(=O)c12`, the TGI is reported as > 100 µM.
`CC(C)(C)O/N=C/c1cc(NC(=S)c2ccsc2)ccc1Cl` gave a TGI of 25.3 µM.
With `O=C1Cc2cn[nH]c2-c2ccccc2N1` the TGI was > 100 µM.
In the case of `O=CNc1ccccc1OCCOc1ccccc1NC=O`, the TGI is reported as > 100 µM.
`C=CCN1CCC(c2cc(C(=O)OCC)[nH]c2-c2cc(C)no2)C1=O` (stereo not drawn) was tested, and the TGI was > 100 µM.
For `Cc1cc(NS(=O)(=O)c2ccc(N=[N+]([O-])c3ccc(S(=O)(=O)Nc4cc(C)on4)cc3)cc2)no1`, the TGI was > 100 µM.
In the case of `Cc1c(/C=N/NC(=S)N2CCCCC2)c(=O)n(-c2ccccc2)n1C`, the TGI is reported as > 100 µM.
For `Cc1ccc(S(=O)(=O)N2CCNCCN(S(=O)(=O)c3ccc(C)cc3)CCNCC2)cc1`, the TGI was 32 µM.
`Cc1sc2nc3n(c(=O)c2c1C)N=CN(c1ccc(Cl)cc1)C3` was tested, and the TGI was > 100 µM.

What follows are compounds tested on HCT-15 colon (assay: NCI anticancer screen, dose series, 48 h).
Compound `O=C(NCCNCCNC(=O)c1cc(-c2ccccc2)nc2ccccc12)c1cc(-c2ccccc2)nc2ccccc12` has a TGI of 8.19 µM.
In the case of `COc1cc2cc(C(=O)N3CC(CCl)c4ccc([N+](C)(C)Cc5ccccc5[N+](=O)[O-])cc43)[nH]c2c(OC)c1OC` (stereo not drawn), the TGI is reported as > 100 µM.
`CC(Cn1c2c(c3cc(O)ccc31)CCc1ccc(O)cc1-2)N(C)C` (stereo not drawn) showed a TGI of 30.2 µM.
With `CC1=NN(c2nc(N)nc(/C(C#N)=C\c3ccc(-c4ccc([N+](=O)[O-])cc4)o3)n2)C(C)(C)C1` the TGI was > 100 µM.
For `CCOC(=O)c1nc2ccc(C(F)(F)F)cc2nc1Nc1ccc(OC)cc1`, the TGI was > 100 µM.
`COc1ccc2nc3ccc(OC)cc3c(SCCCl)c2c1` was tested, and the TGI was > 100 µM.
With `CC(=O)[C@H]1[C@H](O)C[C@@]2(C)[C@@H]3CCc4cc(O)c(OC5OC(CO)C(O)C(O)C5O)cc4C3(C)C(=O)C[C@]12C` (stereo partly drawn) the TGI was > 100 µM.
For `CC(C)(O)c1cc2c(cc1C(C)(C)O)-c1ccccc1-2`, the TGI was > 100 µM.
With `CC(C)[Si]1(C(C)C)OCC2OC(n3ccc(=O)[nH]c3=O)C([Se]c3ccccc3)C2O[Si](C(C)C)(C(C)C)O1` (stereo not drawn) the TGI was 16.3 µM.
`CN(N=O)c1nc2c(C(N)=O)ncn2s1` was tested, and the TGI was > 100 µM.
In the case of `CCOc1ccc(NC(=O)C(=O)Nn2c(N)nnc2N)cc1`, the TGI is reported as > 100 µM.
For `CC(C)(C)OC(=O)N1CCCC1C(=O)NC(c1ccccc1)c1ccccc1` (stereo not drawn), the TGI was > 100 µM.
In the case of `O=C(NCCN1CCCCC1)c1cccc(I)c1`, the TGI is reported as > 100 µM.
